# Reference: patent publication US7687252B2, “Protein crystal of human cytochrome P450 aromatase and uses thereof” (Hauptman-Woodward Medcial Research Institute, Inc., priority 2007, dated 2010)
# Entries after “also recorded” stand apart in the source; their conditions may differ.
# Experiments:
# [1] = tested on: MCF-7 cells; test: Anti-proliferation assay in a MCF-7 cell line expressing P450arom (MTT); assay type: cell-based, human
# [2] = molecular target: T1, P450arom (Homo sapiens, UniProt P11511); parameters: Crystallization and structural investigation of the full-length native P450arom; from tissue; host or cells: human term placenta (aromatase); liver (CPR, bovine or rat); conditions: previously determined [51]; cited from earlier work
# T1 sequence (P11511 1-503): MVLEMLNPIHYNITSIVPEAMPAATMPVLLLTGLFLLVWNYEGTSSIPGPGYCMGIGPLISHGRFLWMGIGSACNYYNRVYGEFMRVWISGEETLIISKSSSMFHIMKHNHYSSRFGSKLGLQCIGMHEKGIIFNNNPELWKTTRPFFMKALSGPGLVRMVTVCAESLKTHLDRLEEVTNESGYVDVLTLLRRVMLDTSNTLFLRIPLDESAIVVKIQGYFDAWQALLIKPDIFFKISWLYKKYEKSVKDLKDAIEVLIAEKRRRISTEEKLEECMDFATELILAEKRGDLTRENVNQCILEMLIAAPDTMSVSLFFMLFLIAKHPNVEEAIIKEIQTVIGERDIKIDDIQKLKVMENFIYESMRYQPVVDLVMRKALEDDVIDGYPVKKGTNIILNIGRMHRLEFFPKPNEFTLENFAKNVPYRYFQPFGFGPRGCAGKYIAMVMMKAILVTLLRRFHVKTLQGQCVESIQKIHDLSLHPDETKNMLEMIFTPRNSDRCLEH
# [3] = molecular target: T1, P450arom; test: Detergent screen: P450arom enzyme activity and time stability; assay type: biochemical; parameters: Crystallization and structural investigation of the full-length native P450arom; from tissue; host or cells: human term placenta (aromatase); liver (CPR, bovine or rat); conditions: detergent 1-3 mM, exchanged for Em on HA column
# [4] = molecular target: T1, P450arom; test: Absorption spectrum (Soret band) of P450arom-ligand complexes; parameters: Crystallization and structural investigation of the full-length native P450arom; from tissue; conditions: absorption spectrum of the P450arom complex
# [5] = molecular target: T1, P450arom; test: Inhibition of P450arom enzyme activity (3H-water release from [1β-3H, 4-14C] androstenedione, enzyme reconstituted with CPR); assay type: biochemical; parameters: Crystallization and structural investigation of the full-length native P450arom; from tissue; host or cells: human term placenta (aromatase); liver (CPR, bovine or rat); conditions: P450arom 20-30 mg/ml, final inhibitor 0.5-1.0 mM, crystallization protocol
# [6] = tested on: Aromatase; test: Assay of enzyme activity (specific activity) of purified aromatase; assay type: biochemical, human; conditions: in BNM after detergent exchange
# [7] = molecular target: T2, Aromatase (Homo sapiens, UniProt P11511); test: as above; assay type: biochemical
# T2 construct: Crystallization and structural investigation of the full-length native P450arom; from tissue; host or cells: human term placenta (aromatase); liver (CPR, bovine or rat)
# T2 sequence (P11511 1-503): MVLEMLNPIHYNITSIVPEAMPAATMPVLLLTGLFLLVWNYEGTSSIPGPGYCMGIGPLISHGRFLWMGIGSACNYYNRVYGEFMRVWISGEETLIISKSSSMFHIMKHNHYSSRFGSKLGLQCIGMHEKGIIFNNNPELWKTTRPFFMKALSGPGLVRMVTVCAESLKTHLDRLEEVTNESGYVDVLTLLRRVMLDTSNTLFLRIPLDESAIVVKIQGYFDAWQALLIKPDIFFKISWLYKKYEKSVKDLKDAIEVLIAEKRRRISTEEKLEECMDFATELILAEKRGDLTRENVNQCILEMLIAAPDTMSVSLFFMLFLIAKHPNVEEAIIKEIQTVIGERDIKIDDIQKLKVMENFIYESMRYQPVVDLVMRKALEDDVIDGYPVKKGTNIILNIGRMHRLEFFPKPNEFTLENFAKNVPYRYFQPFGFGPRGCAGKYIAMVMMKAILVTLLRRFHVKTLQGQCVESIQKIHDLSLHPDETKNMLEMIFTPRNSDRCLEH
molecule,measurement,setting,value
4-hydroxytamoxifen,A-stimulated growth of the MCF-7 cells,[1]; androstenedione (A) stimulated,decreased
"CCCCCCCCCCCCO[C@@H]1O[C@H](CO)[C@@H](O[C@H]2O[C@H](CO)[C@@H](O)[C@H](O)[C@H]2O)[C@H](O)[C@H]1O [BDM, n-dodecyl-β-D-maltopyranoside]",effect of detergent on P450arom activity,[2],maintained P450arom activity for weeks at 4 °C
"CCCCCCCCCO[C@@H]1O[C@H](CO)[C@@H](O[C@H]2O[C@H](CO)[C@@H](O)[C@H](O)[C@H]2O)[C@H](O)[C@H]1O [BNM, n-nonyl-β-D-maltopyranoside]",effect of detergent on enzyme activity and time stability,[3],maintained enzyme activity and time stability at least as well as BDM; also recorded: maintained the full P450arom activity
"CCCCCCCCO[C@@H]1O[C@H](CO)[C@@H](O)[C@H](O)[C@H]1O [BOG, n-octyl-β-D-glucopyranoside]",effect of detergent on P450arom activity,[2],destroy P450arom activity rapidly
"CCCCCCCCO[C@@H]1O[C@H](CO)[C@@H](O[C@H]2O[C@H](CO)[C@@H](O)[C@H](O)[C@H]2O)[C@H](O)[C@H]1O [BOM, n-octyl-β-D-maltopyranoside]",effect of detergent on enzyme activity and time stability,[3],maintained enzyme activity and time stability at least as well as BDM
CC(C)(C#N)c1cc(Cn2cncn2)cc(C(C)(C)C#N)c1 [anastrozole],Soret band,[4],421 nm
C[C@]12CCC(=O)C=C1CC[C@@H]1[C@@H]2CC[C@]2(C)C(=O)CC[C@@H]12 [androstenedione],Soret band,[4],394 nm
same,growth of the MCF-7 cells,[1]; substrate steroid alone,stimulates the growth of the MCF-7 cells in a concentration-dependent manner
N#Cc1ccc(C(c2ccc(C#N)cc2)n2cncn2)cc1 [letrozole],Soret band,[4],421 nm
same,DHEA-stimulated cell growth,[1]; DHEA stimulated MCF-7 cells,inhibits the growth of DHEA-stimulated cell growth
same,inhibition of P450arom,[5],~100%
"Del38arom: amino-terminal trans-membrane domain deleted P450arom, bacterial expression clone (protein, UniProt P11511 39-503, looked up, fragment) WNYEGTSSIPGPGYCMGIGPLISHGRFLWMGIGSACNYYNRVYGEFMRVWISGEETLIISKSSSMFHIMKHNHYSSRFGSKLGLQCIGMHEKGIIFNNNPELWKTTRPFFMKALSGPGLVRMVTVCAESLKTHLDRLEEVTNESGYVDVLTLLRRVMLDTSNTLFLRIPLDESAIVVKIQGYFDAWQALLIKPDIFFKISWLYKKYEKSVKDLKDAIEVLIAEKRRRISTEEKLEECMDFATELILAEKRGDLTRENVNQCILEMLIAAPDTMSVSLFFMLFLIAKHPNVEEAIIKEIQTVIGERDIKIDDIQKLKVMENFIYESMRYQPVVDLVMRKALEDDVIDGYPVKKGTNIILNIGRMHRLEFFPKPNEFTLENFAKNVPYRYFQPFGFGPRGCAGKYIAMVMMKAILVTLLRRFHVKTLQGQCVESIQKIHDLSLHPDETKNMLEMIFTPRNSDRCLEH",specific activity,[6],< 1 nmol/min/mg
"Aromatase: human cytochrome P450 aromatase purified from term placenta, SEQ ID NO:1 (protein, listed as Homo sapiens) MVLEMLNPIHYNITSIVPEAMPAATMPVLLLTGLFLLVWNYEGTSSIPGPGYCMGIGPLISHGRFLWMGIGSACNYYNRVYGEFMRVWISGEETLIISKSSSMFHIMKHNHYSSRFGSKLGLQCIGMHEKGIIFNNNPELWKTTRPFFMKALSGPGLVRMVTVCAESLKTHLDRLEEVTNESGYVDVLTLLRRVMLDTSNTLFLRIPLDESAIVVKIQGYFDAWQALLIKPDIFFKISWLYKKYEKSVKDLKDAIEVLIAEKRRRISTEEKLEECMDFATELILAEKRGDLTRENVNQCILEMLIAAPDTMSVSLFFMLFLIAKHPNVEEAIIKEIQTVIGERDIKIDDIQKLKVMENFIYESMRYQPVVDLVMRKALEDDVIDGYPVKKGTNIILNIGRMHRLEFFPKPNEFTLENFAKNVPYRYFQPFGFGPRGCAGKYIAMVMMKAILVTLLRRFHVKTLQGQCVESIQKIHDLSLHPDETKNMLEMIFTPRNSDRCLEH",turnover number,[7]; calculated,~6 min⁻¹
same,specific activity retained,"[7]; in detergents BNM and BDM, 4° C. for weeks",80-90%
same,specific activity of the purified enzyme,"[7]; typical / over a large number of purifications, androstenedione as substrate",20 to 100 nmol/min/mg
same,specific activity,[7]; with Em as the detergent,50 to 100 nmol/min/mg
same,specific activity,[6],10 to 50 nmol/min/mg
